# Source: patent US7947275B2 (Signe Biopharma, Inc., priority 2000, dated 2011)
# “And” between values parts separate entries of the source, which are not always exact repeats. Identical values can stand only once. Counter-ions that a name gives are not always drawn. Like-named read-outs stand apart in the source and are kept apart here.
# Assays:
# LNCaP cells = test: Cell growth assay, LNCaP human prostatic carcinoma cells; format: cell-based; details: for reversal of the inhibition caused by CDE-horse serum: D-MEM/F-12 with CDE-horse serum, 10 nM steroid
# Description: Specific modifications of the customary cell growth assays were required for assays done under iron-restricted conditions. […] Serum-free components were added to “low-Fe” D-MEM/F-12 at double the concentrations needed (2X) or to “standard” D-MEM/F-12 at (2X) as the experiments dictated. Each assay dish received 1.0 mL of this solution. Next, the cells to be used in the assays were washed three times in either “low-Fe” medium or “standard” medium depending upon the experimental protocol.
# MCF-7A cells = test: Cell growth assay, MCF-7A human breast cancer cells; details: DDM-2MF with 10 μg/mL apotransferrin in place of deferoxamine
# Excerpt: (§1) General Cell Culture—Growth Assay Methods.
# (§2) General Cell Culture—Harvest and Counting Cells.
# (§3) General Cell Culture—Quantification of Growth.
# DU145 cells = test: Cell growth assay, DU145 human prostate cancer cells; details: CAPM, 10 μM Fe (III)
# Excerpt: as §1, §2, §3
# PC3 cells = test: Cell growth assay, PC3 human prostate cancer cells; details: CAPM, 10 μM Fe (III)
# Excerpt: as §1, §2, §3
# ALVA-41 cells = test: Cell growth assay, ALVA-41 human prostate cancer cells; details: results not shown
# T47D cells = test: Cell growth assay, T47D human breast cancer cells; details: for growth effect of steroid hormone, result in words: 50% (v/v) CDE horse serum, 14 days
# Excerpt: as §1, §2, §3
# GH4C1 cells = test: Cell growth assay, GH4C1 rat pituitary tumor cells; details: 50% CDE-horse serum
# Excerpt: as §1, §2, §3
# MTW9/PL2 cells = test: Cell growth assay, MTW9/PL2 rat mammary tumor cells; details: for concentration for optimum growth / concentration causing significant (p<0.05) growth: 50% (v/v) CDE-horse serum
# Excerpt: as §1, §2, §3
# H301 cells = test: Cell growth assay, H301 kidney tumor cells; details: 50% (v/v) CDE-horse serum
# Excerpt: as §1, §2, §3
# human SHBG = human SHBG (Homo sapiens, UniProt P04278); details: 37° C.; cited from earlier work
# [1] = read-out: Kd of specific binding of ^3H-DHT
# [2] = read-out: Kd of specific binding of ^3H-DHT, Scatchard analysis
# [3] = biological target: T1, CA-PS-Pool I (predominantly CBG) (Equus caballus, UniProt F7DRS2); test: Scatchard analysis of labeled steroid binding to CA-PS-pool I; parameters: species or system horse
# T1 sequence (F7DRS2 23-406): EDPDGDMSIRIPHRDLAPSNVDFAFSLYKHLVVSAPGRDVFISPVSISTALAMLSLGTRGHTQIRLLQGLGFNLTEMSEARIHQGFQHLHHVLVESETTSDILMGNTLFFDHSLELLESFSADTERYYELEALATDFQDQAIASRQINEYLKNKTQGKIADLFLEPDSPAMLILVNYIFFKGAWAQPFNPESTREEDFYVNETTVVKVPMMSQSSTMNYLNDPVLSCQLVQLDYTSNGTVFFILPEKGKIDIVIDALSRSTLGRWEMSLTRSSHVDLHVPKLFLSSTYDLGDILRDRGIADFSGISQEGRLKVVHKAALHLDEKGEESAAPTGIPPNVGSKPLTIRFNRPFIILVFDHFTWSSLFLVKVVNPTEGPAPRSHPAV
# [4] = tested on: androgen receptors of MTW9/PL2 cells
# [5] = tested on: CA-PS-Pool II from rat serum; test: Scatchard analysis of labeled steroid binding to the SHBG-like pools from rat serum; details: 3H-labeled steroid
# CA-PS-Pool II = test: Scatchard analysis of labeled steroid binding to CA-PS-pool II; parameters: species or system horse; details: 3H-labeled steroid, 34° C.
# [6] = tested on: MCF-7A, MCF-7K, T47D and ZR-75-1 cells; test: Growth factors as substitutes for E2 with human breast cancer cells in CDE-horse serum; format: cell-based; details: EGF, TGFα growth saturating; IGF-I 1.0 μg/mL; IGF-II up to 500 ng/mL; insulin 10 ng/mL to 10 μg/mL
# [7] = tested on: MCF-7A, T47D, ZR-75-1, LNCaP and GH4C1 cells; test: TGFβ1 at 50 ng/mL ± E2 with other ER^+ cell lines; format: cell-based
# MCF-7K cells = test: Cell growth assay, MCF-7K human breast cancer cells
# Excerpt: as §1, §2, §3
# [8] = biological target: T2, estrogen receptors of MTW9/PL2 cells (Rattus norvegicus, UniProt P06211); test: ^3H-E2 binding to MTW9/PL2 cells; details: 5 nM ^3H-E2, 37° C., 100-fold molar excess of unlabeled steroid
# T2 construct: endogenous in cells; host or cells: MTW9/PL2 rat mammary tumor cells (whole cells; some values from extracts of the parental MTW9/PL line)
# human CBG = human CBG (Homo sapiens, UniProt P08185); details: 23° C.; cited from earlier work
# [9] = tested on: cortisol receptors of MTW9/PL2 cells; test: ^3H-cortisol binding to MTW9/PL2 cells; details: ≦20 nM ^3H-cortisol
# [10] = biological target: progesterone receptors in MTW9/PL2 cells (Rattus norvegicus, UniProt Q63449); test: ^3H-progesterone binding to MTW9/PL2 cells
# [11] = tested on: progesterone receptors in MTW9/PL2 cells; test: ^3H-progesterone binding to MTW9/PL2 cells; parameters: species or system rat; details: 37° C.
# [12] = read-out: CA-PS-Pool I Kd; 3H-labeled steroid, 34° C.
# T2 sequence (P06211 whole entry): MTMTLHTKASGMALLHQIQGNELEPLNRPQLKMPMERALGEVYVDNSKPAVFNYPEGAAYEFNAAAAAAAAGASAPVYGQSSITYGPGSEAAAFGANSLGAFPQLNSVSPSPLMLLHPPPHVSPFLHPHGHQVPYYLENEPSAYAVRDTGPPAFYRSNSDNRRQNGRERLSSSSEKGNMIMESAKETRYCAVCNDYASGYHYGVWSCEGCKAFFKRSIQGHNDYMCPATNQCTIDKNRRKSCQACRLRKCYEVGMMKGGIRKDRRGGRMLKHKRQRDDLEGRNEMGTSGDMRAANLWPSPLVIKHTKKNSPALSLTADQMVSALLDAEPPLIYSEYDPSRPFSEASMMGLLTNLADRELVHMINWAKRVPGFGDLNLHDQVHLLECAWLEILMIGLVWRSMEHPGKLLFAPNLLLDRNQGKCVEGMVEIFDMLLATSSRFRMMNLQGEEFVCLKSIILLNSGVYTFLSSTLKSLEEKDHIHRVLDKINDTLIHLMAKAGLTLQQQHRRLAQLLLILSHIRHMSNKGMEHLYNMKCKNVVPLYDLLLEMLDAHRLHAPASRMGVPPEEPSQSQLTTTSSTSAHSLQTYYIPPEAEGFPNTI
# Chain of progesterone receptors in MTW9/PL2 cells (Rattus norvegicus, UniProt Q63449) (Q63449 669-923 limits assumed): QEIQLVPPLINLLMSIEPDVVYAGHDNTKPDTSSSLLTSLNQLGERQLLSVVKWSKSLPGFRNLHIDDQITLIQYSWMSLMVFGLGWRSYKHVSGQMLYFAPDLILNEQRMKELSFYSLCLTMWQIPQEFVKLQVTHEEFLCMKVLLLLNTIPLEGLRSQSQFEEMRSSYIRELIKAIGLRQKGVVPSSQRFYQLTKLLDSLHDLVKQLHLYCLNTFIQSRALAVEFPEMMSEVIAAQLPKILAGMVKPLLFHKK
# Chain of human CBG (P08185 23-405): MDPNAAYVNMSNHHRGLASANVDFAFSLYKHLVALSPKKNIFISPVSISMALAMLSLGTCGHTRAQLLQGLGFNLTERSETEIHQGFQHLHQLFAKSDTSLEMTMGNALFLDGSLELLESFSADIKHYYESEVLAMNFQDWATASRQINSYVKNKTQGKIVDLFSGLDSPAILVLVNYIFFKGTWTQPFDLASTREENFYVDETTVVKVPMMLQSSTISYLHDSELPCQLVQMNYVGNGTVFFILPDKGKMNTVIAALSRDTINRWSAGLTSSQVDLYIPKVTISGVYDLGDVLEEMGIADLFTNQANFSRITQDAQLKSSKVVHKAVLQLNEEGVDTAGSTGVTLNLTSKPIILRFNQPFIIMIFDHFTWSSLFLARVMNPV
# Chain of human SHBG (P04278 30-402): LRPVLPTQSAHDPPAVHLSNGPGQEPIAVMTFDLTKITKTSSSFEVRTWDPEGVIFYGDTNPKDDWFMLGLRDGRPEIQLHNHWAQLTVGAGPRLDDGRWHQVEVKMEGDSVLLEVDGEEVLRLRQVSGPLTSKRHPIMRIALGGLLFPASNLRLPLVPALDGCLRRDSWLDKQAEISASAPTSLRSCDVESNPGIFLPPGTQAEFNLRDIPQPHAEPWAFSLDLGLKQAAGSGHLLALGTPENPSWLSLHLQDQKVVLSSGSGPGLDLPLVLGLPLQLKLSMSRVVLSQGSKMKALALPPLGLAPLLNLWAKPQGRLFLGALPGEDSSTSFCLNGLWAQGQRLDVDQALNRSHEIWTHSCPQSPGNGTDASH
molecule,measurement,setting,value
[Fe+3] [Fe (III)],IC50,"LNCaP cells; CAPM with apotransferrin (500 nM) substituted for deferoxamine, 12-day assay, read-out: EI50 (the source's name)",5000 nM
same,concentration arresting growth to seed density levels,"LNCaP cells; CAPM with apotransferrin (500 nM) substituted for deferoxamine, 12-day assay, second experiment in CAPM",10 µM and 8 to 10 µM
same,concentration completely inhibitory,"MCF-7A cells; ± E2, 10 days",10 µM
same,IC50,"MCF-7A cells; read-out: EI50, 10 days",5000 to 7000 nM
same,reduction in cell number,DU145 cells,30%
same,reduction in cell number,PC3 cells,10%
same,iron sensitivity of growth,ALVA-41 cells,not iron sensitive
same,concentration giving complete inhibition,"T47D cells; DDM-2MF with 10 μg/mL apotransferrin instead of deferoxamine, 10 days, ± E2",2 µM
same,IC50,"T47D cells; read-out: EI50, DDM-2MF with 10 μg/mL apotransferrin instead of deferoxamine, 10 days",1000 nM
"CC/C(=C(\c1ccccc1)c1ccc(OCCN(C)C)cc1)c1ccccc1 [tamoxifen, Tamoxifen Citrate]",estrogen reversal of the tamoxifen inhibition,"T47D cells; 1.0×10^−7 M tamoxifen, serum-free defined medium",estrogens completely reverse the effect
same,cytotoxicity,"T47D cells; concentrations above 1.0×10^−7 M, serum-free DDM-2MF",Higher concentrations were cytotoxic
same,concentration that completely inhibited (arrested) growth,T47D cells; serum-free DDM-2MF without any source of estrogens,100 nM
"C[C@]12CC[C@@H]3c4ccc(O)cc4CC[C@H]3[C@@H]1CCC2=O [E1, Estrone]",concentration required for optimum growth,GH4C1 cells,10 nM
same,lowest concentration that gave significant (p<0.05) growth,GH4C1 cells,1 pM
same,concentration for optimum growth,MTW9/PL2 cells,1 nM
same,concentration required to achieve significant (p<0.05) growth,H301 cells,100 pM
"C[C@]12CCC(=O)C[C@@H]1CC[C@@H]1[C@@H]2CC[C@]2(C)[C@@H](O)CC[C@@H]12 [DHT, Dihydrotestosterone]",Ka of purified human SHBG,human SHBG,9.9e+08 M⁻¹
same,concentration causing significant (p<0.05) growth,LNCaP cells; D-MEM/F-12 with 50% (v/v) CDE horse serum,1 pM
same,reversal of the inhibition caused by CDE-horse serum,LNCaP cells,effectively reversed the inhibition
same,androgenic effect (difference between presence and absence of DHT),LNCaP cells; serum-free CAPM ± 10 nM DHT,less than one
same,concentration causing significant (p<0.05) growth,MTW9/PL2 cells,≥ 10 nM
same,Kd,[1],15 to 40 nM
same,"growth effect of steroid hormone, result in words",T47D cells,promoted growth but only at supraphysiological concentrations
same,Kd,[2],1 to 5 nM
same,"growth effect of steroid hormone, result in words",H301 cells,inactive
same,CA-PS-Pool I Ka,"[3]; 3H-labeled steroid, 34° C.",164000 M⁻¹
same,Kd,[3]; [12],6050 nM
same,specific saturable binding sites for androgens,[4],did not reveal saturable specific binding sites
same,CA-PS-Pool II Ka,[5],4.1e+07 M⁻¹
same,Kd,[5],24 nM
same,CA-PS-Pool II Ka,CA-PS-Pool II,6.99e+07 M⁻¹
same,Kd,CA-PS-Pool II,14.3 nM
same,CA-PS-Pool II Ka,CA-PS-Pool II; listed as 3H-DHT,5.88e+07 M⁻¹
insulin: bovine insulin,reversal of the CDE-serum inhibition (substitute for E2),[6],did not reverse the inhibition caused by 50% (v/v) CDE serum
IGF-II: insulin-like growth factor II,reversal of the CDE-serum inhibition (substitute for E2),[6],did not reverse the inhibitory effects of 10 to 50% (v/v) CDE serum
"CC/C(=C(/CC)c1ccc(O)cc1)c1ccc(O)cc1 [DES, Diethylstilbestrol]",reversal of the inhibition caused by CDE-horse serum,LNCaP cells,entirely ineffective
IGF-I: insulin-like growth factor I,reversal of the CDE-serum inhibition (substitute for E2),[6],did not reverse the serum inhibition
"EGF: epidermal growth factor from mouse submaxillary gland (NSYPGCPSSYDGYCLNGGVCMHIESLDSYTCNCVIGYSGDRCQTRDLRWWELR; not fully specified; Epidermal growth factor; UniProt P01132 977-1029, looked up)",reversal of the CDE-serum inhibition (substitute for E2),[6],did not reverse the effects of the serum-borne inhibitor
TGFβ1: transforming growth factor β1,substitution for the estrogen reversible inhibitor,[7],did not substitute for the estrogen reversible inhibitor(s) in CDE serum
same,"cell numbers per dish with TGFβ1 (350,000 without)",MTW9/PL2 cells; D-MEM/F-12 with […] (v/v) CDE-horse serum,"100,000 per dish"
same,decrease in growth rate,MTW9/PL2 cells; […] (v/v) CDE-horse serum,≤ 25%
same,inhibition of growth,MTW9/PL2 cells; […] (v/v) CDE-horse serum,1.5 CPD
same,estrogen reversal of the inhibition,MTW9/PL2 cells; […] (v/v) CDE-horse serum ± E2,no estrogen reversal of the TGFβ1 inhibition
same,estrogen reversal of the inhibition,MCF-7K cells; […] (v/v) CDE-horse serum ± E2,no TGFβ1 related estrogenic effect
same,"cell numbers per dish with TGFβ1 (350,000 without)","MCF-7K cells; […] (v/v) CDE-horse serum, 50 ng/mL","200,000 per dish"
"TGFα: transforming growth factor α, EGF analogue",reversal of the CDE-serum inhibition (substitute for E2),[6],did not reverse the effects of the serum-borne inhibitor
"C[C@]12CC[C@H]3[C@@H](CCC4=CC(=O)CC[C@@]43C)[C@@H]1CC[C@@H]2O [T, Testosterone]",reduction of ^3H-E2 total binding by unlabeled steroid,[8],did not displace ^3H-E2 total binding significantly
same,"growth effect of steroid hormone, result in words",GH4C1 cells,ineffective
same,"growth effect of steroid hormone, result in words",T47D cells,promoted growth but only at supraphysiological concentrations
same,"growth effect of steroid hormone, result in words",H301 cells,inactive
"CC(=O)N(O)CCCCCNC(=O)CCC(=O)N(O)CCCCCNC(=O)CCC(=O)N(O)CCCCCN [deferoxamine, deferoxamine mesylate]",growth induced by chelator,"LNCaP cells; CAPM without deferoxamine plus […] Fe (III), 0.5 μM chelator",3.5 CPD
"C[C@]12CC[C@@H]3c4ccc(O)cc4CC[C@H]3[C@@H]1C[C@@H](O)[C@@H]2O [E3, Estriol]","growth effect of steroid hormone, result in words",GH4C1 cells,substantially less effective
same,concentration for optimum growth,MTW9/PL2 cells,10 nM
"C[C@]12CCC(=O)C=C1CC[C@@H]1[C@@H]2[C@@H](O)C[C@@]2(C)[C@H]1CC[C@]2(O)C(=O)CO [cortisol, Hydrocortisone/Cortisol]","growth effect of steroid hormone, result in words",GH4C1 cells,had no effect on GH4C1 growth
same,concentration causing significant (p<0.05) growth,MTW9/PL2 cells,> 10000 nM
same,Ka for human CBG,human CBG,5.2e+07 M⁻¹
same,"growth effect of steroid hormone, result in words",T47D cells,completely ineffective
same,"growth effect of steroid hormone, result in words",H301 cells,inactive
same,CA-PS-Pool I Ka,"[3]; 3H-labeled steroid, 34° C.",1.41e+09 M⁻¹
same,CA-PS-Pool I Ka,"[3]; 3H-labeled steroid, 34° C.; listed as Cortisol",1.41e+09 M⁻¹
same,Kd,"[3]; 3H-labeled steroid, 34° C.; read-out: CA-PS-Pool I Kd",0.71 nM
same,CA-PS-Pool II Ka,[5],180000 M⁻¹
same,Kd,[5],5700 nM
same,CA-PS-Pool II Ka,CA-PS-Pool II,530000 M⁻¹
same,Kd,CA-PS-Pool II,1890 nM
same,specific saturable receptors for cortisol,[9],did not identify specific saturable receptors
"CC(=O)[C@H]1CC[C@H]2[C@@H]3CCC4=CC(=O)CC[C@]4(C)[C@H]3CC[C@]12C [progesterone, Progesterone]","growth effect of steroid hormone, result in words",GH4C1 cells,had no effect on GH4C1 growth
same,concentration causing significant (p<0.05) growth,MTW9/PL2 cells,≥ 100 nM
same,Kd,[10],3.29 nM
same,^3H-progesterone concentration at one-half saturation,[11],0.5 to 1 nM
same,labeled progesterone concentration saturating specific binding,[11],≥ 5 nM
same,Kd,"[11]; read-out: Kd of ^3H-progesterone binding, Scatchard analysis, whole cells",1.02 nM
same,"growth effect of steroid hormone, result in words",T47D cells,completely ineffective
same,"growth effect of steroid hormone, result in words",H301 cells,inactive
same,CA-PS-Pool I Ka,"[3]; 3H-labeled steroid, 34° C.",5.9e+08 M⁻¹
same,Kd,[3]; [12],1.7 nM
same,CA-PS-Pool II Ka,[5],140000 M⁻¹
same,Kd,[5],6900 nM
same,CA-PS-Pool II Ka,CA-PS-Pool II,117000 M⁻¹
same,Kd,CA-PS-Pool II,7890 nM
